Source: ChEMBL document CHEMBL3244235, “Relationships between opiate receptor binding and analgetic properties of prodine-type compounds” (1977)
Activity calls are given as the source filed them. No cut-off for these calls is given here.

What follows are compounds tested against T1, Opioid receptor (Rattus norvegicus) (UniProt P33533+P34975+P33535) (assay: Displacement of nonspecific [3H]dihydromorphine from opiate receptor in rat brain homogenates at 10^-5 M after 10 mins by scintillation counting).
T1 sequence (P33533 whole entry, looked up): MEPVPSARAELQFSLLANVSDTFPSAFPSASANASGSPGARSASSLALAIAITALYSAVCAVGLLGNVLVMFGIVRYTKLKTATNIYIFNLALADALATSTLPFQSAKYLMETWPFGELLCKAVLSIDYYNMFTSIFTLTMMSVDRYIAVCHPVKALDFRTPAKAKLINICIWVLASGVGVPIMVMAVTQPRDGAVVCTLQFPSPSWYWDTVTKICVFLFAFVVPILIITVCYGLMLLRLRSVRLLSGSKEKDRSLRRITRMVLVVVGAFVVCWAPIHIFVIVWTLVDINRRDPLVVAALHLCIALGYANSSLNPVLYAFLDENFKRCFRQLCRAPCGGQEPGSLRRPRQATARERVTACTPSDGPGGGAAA
T1 sequence (P33535 whole entry, looked up): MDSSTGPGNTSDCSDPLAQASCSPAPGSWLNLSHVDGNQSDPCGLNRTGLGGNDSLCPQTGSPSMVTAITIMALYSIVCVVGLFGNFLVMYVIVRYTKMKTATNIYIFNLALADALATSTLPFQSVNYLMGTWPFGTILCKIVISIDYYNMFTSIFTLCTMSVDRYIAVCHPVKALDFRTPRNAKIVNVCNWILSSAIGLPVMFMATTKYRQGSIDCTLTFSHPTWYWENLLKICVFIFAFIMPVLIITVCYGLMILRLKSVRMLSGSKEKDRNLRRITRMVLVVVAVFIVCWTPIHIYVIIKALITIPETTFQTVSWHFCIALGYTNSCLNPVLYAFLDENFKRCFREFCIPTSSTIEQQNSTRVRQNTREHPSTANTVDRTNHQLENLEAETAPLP
T1 sequence (P34975 whole entry, looked up): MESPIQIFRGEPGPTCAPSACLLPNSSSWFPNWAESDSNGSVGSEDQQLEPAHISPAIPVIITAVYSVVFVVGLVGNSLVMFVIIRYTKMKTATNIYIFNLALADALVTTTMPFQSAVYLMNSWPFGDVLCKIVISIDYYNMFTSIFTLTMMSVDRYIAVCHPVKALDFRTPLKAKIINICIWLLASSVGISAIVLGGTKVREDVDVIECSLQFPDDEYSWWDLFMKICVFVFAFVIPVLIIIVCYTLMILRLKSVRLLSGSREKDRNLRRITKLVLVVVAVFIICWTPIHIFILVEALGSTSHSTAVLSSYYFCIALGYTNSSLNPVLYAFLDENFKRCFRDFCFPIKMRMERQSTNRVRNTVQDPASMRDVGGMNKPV
Type: tissue-based
With CCCCCC[C@H]1CN(C)CC[C@]1(OC(=O)CC)c1ccccc1.Cl (relative stereo) the inhibition was “Active”.

The compounds below were run on Mus musculus (assay: Analgesic activity in sc dosed mouse by hot plate method).
Type: functional
For CCC(=O)O[C@]1(c2ccccc2)CCN(C)C[C@@H]1C.Cl (relative stereo), the ED50 was 0.92 mg/kg.
With C=CCC1CN(C)CCC1(OC(=O)CC)c1ccccc1.Cl (configuration not stated) the ED50 was 0.03 mg/kg.
In the case of CCC(=O)O[C@]1(c2ccccc2)CCN(C)C[C@H]1C.Cl (relative stereo), the ED50 is reported as 0.18 mg/kg.
CCC(=O)O[C@]1(c2ccccc2)CCN(C)C[C@H]1CC.Cl (relative stereo) was tested, and the ED50 was 3.5 mg/kg.
For CCCCCC[C@@H]1CN(C)CC[C@]1(OC(=O)CC)c1ccccc1.Cl (relative stereo), the ED50 was 54.4 mg/kg.
CCC(=O)O[C@]1(c2ccccc2)CCN(C)C[C@@H]1CC.Cl (relative stereo) showed an ED50 of 0.4 mg/kg.
With CCCCCC[C@H]1CN(C)CC[C@]1(OC(=O)CC)c1ccccc1.Cl (relative stereo) the ED50 was 80 mg/kg.
With C=CC[C@@H]1CN(C)CC[C@]1(OC(=O)CC)c1ccccc1.Cl (relative stereo) the ED50 was 11.7 mg/kg.
In the case of C=CC[C@H]1CN(C)CC[C@]1(OC(=O)CC)c1ccccc1.Cl (relative stereo), the ED50 is reported as 0.09 mg/kg.
With CN1CC[C@]23c4c5ccc(O)c4O[C@H]2[C@@H](O)C=C[C@H]3[C@H]1C5.Cl [MORPHINE HYDROCHLORIDE] the ED50 was 1.2 mg/kg.

These compounds were tested against T1, Opioid receptor (Rattus norvegicus) (assay: Displacement of specific [3H]dihydromorphine from opiate receptor in rat brain homogenates at 10^-5 M after 10 mins by scintillation counting).
Type: tissue-based
CCCCCC[C@H]1CN(C)CC[C@]1(OC(=O)CC)c1ccccc1.Cl (relative stereo) was tested, and the inhibition was “Active”.
